Source: patent US11999737B2, “Kinase inhibitors and related methods of use” (Duke University, priority 2014, dated 2024)
“Also recorded” adds a separate entry of the source.

Columns and labels:
[1] = test system: MYPT1 Thr696 phosphorylation; test: Western blot of MYPT1 Thr696 phosphorylation in Ca2+-sensitized rabbit ileum; conditions: HS38 50 μM
Method: To examine the effect of ZIPK inhibition on sensitized force, muscle strips were stimulated with an intermediate calcium concentration solution (pCa 6.5). Once force reached a plateau, strips were Ca^2+-sensitized by the addition of the agonist carbachol (5 μM). Up to 2 μM of GTP was added together with the sensitizing agonist to compensate for possible loss of GTP during permeabilization. At the plateau of Ca-sensitized force (5-10 min upon stimulation), the ZIPK inhibitor, HS38 (50 μM) or diluent (0.1% DMSO) was added and the force relaxation time course was recorded. Tissue samples were frozen 20 min after the addition of HS38 for biochemical assays of RLC20 and MYPT1 phosphorylation.
MYPT1 and RLC20 phosphorylation: To examine the phosphorylation of MYPT1 and RLC20, rabbit ileum SM strips were treated as described above and previously reported. (Gong et al. (1995), J. Physiol.-London 486, 113-122; Kitazawa et al. (1989) J. Biol. Chem. 264, 5339-5342; Kobayashi et al. (1991) Am. J. Physiol. 260, C364-C370), Following the stimulation protocols, muscle strips were immediately frozen by immersion in −80° C. acetone with trichloroacetic acid (10% w/v) and stored at −80° C. […] Phosphorylation of MYPT1 Thr696 and of RLC20 was determined by SDS-PAGE and Western blotting. […]

[2] = test system: human cerebral arterioles; test: Pressure myography of isolated human cerebral arterioles, myogenic tone; conditions: HS-38 10 μM, ex vivo
Text: A human cerebral artery (CA) was harvested during a tumour removal. Cerebral tissue was obtained from a person with metastatic adenocarcinoma from lung. Surface vessels of the anterior cerebral artery off the midline over the left anterior frontal lobe were dissected for analysis. […] Pressure-induced changes in arteriolar diameter (A) as well as diameter-pressure relationships (B) and arterial constriction (C) are shown. Data are from n=1 vessel. The passive diameter at 120 mmHg was ˜290 μm. Vessels of similar diameter were isolated, proteins were extracted with SDS-PAGE buffer and immunoblotted (D) for ZIPK and α-actin as a loading control.
A human cerebral artery (CA) was harvested during a tumor removal. Cerebral tissue was obtained from a person with metastatic adenocarcinoma from lung. Surface vessels of the anterior cerebral artery off the midline over the left anterior frontal lobe were dissected for analysis. […]
Pressure-induced changes in arteriole diameter (A) as well as diameter-pressure relationships (B) and arterial constriction (C) are shown. […] Bands were quantified with a LAS4000 gel analyzer.
Tissues were obtained from patients undergoing resections for treatment for epilepsy or tumors. Surface vessels of ˜200 μm diameter were analyzed by pressure myography and western immunoblotting.

rabbit ileum = test: Carbachol-induced Ca2+-sensitized force in α-toxin permeabilized rabbit ileum; conditions: HS38 50 μM, at 20 min, pCa 6.5
Method: A. Typical force trace and graphical representation showing the effect of HS38 (50 μM) on carbachol-induced, Ca^2+ sensitized force in α-toxin permeabilized rabbit ileum. HS38 induced an approximate 30% decrease in the plateaued force at 20 min. (mean±S.E., n=7). B, Western blot analysis of RLC20 and MYPT1 Thr696 phosphorylation following treatment with HS38 (50 μM). […] C. Typical force trace showing the effect, of HS38 on Ca^2+-independent force production in rabbit ileum smooth muscle. […] E. Both the lag time to the onset of force (p <0.05, n=3) and the rate of force development (t1/2) (p <0.02, n=3) were increased following the addition of MC-LR in the presence of HS38 (mean±S.E., n=3).
Tissue Preparation and Force Measurements. […] Intact strips of mouse abdominal aorta were challenged with phenylephrine following pretreatment with HS38 or diluent, DMSO or HS38 and DMSO were added after maximal phenylephrine-induced force was achieved and force output measured. […] For Ca^2+ activating solutions, EGTA (10 mM) and a calculated amount of Ca-methanesulfonate was added to give the desired free Ca^2+ concentration ((Horiuti (1988) J. Physiol.-London 398, 131-148). […]

LC20 phosphorylation = test system: LC20 phosphorylation; parameters: species or system rat
ROK2 = ROK2 (Rattus norvegicus, UniProt Q62868); test: 33P-ATP filter-binding kinase assay
Sequence of ROK2 (Q62868 2-543): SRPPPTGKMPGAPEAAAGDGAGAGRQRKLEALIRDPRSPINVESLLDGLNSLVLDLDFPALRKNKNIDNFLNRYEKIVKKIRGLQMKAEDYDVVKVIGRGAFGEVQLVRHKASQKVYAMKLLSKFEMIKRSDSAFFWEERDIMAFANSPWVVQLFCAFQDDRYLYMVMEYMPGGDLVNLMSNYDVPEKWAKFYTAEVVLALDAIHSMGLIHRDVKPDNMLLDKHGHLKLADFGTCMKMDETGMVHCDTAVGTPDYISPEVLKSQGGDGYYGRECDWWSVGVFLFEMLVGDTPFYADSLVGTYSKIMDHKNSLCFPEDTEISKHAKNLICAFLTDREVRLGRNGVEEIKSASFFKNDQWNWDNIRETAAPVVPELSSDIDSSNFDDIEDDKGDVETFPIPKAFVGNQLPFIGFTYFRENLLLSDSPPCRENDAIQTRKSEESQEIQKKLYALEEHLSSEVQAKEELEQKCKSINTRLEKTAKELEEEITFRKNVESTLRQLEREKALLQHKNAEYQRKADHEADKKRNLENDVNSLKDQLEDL

Question: What does the source list for CC(Sc1nc2c(cnn2-c2cccc(Cl)c2)c(=O)[nH]1)C(N)=O (stereo not drawn) [HS38]?
Answer: MYPT1 Thr696 phosphorylation level [1]: significantly reduced; myogenic tone development [2]: appeared to attenuate; also recorded: suppressed; decrease in plateaued carbachol-induced Ca2+-sensitized force (rabbit ileum): ~30%; LC20 mono- and diphosphorylation (LC20 phosphorylation): time-dependent attenuations; activity against ROK2 (ROK2): completely inactive; activity at 10 µM (ROK2; read-out: % Activity (10 μM HS38)): 91%
